Results taken from patent US8828988B2 (Tetraphase Pharmaceuticals, Inc., priority 2009, dated 2014).
In brackets after ≈: the same amount, converted by molar mass. Read-outs that look alike come from different tables or passages of the source.

Key:
[1] = test system: E. coli DH10B(pBAD-tetM), expressing tet(M); assay: MIC against recombinant E. coli expressing tet(M); format: cell-based; details: for MIC: Escherichia coli; for Ratio (TetM induced / Uninduced): ratio of MICs; for Effect of expression of (tet)M on activity: result in words
Excerpt: (§1) Constructs were transformed into E. coli DH10B for expression. Recombinant strains were pre-induced under optimized conditions with L-arabinose prior to use as inocula in CLSI standardized MIC assays.

[2] = test system: E. coli DH10B(pBAD-tetK), expressing tet(K); assay: MIC against recombinant E. coli expressing tet(K); format: cell-based; details: for MIC: Escherichia coli; for MIC ratio, TetK induced to uninduced: ratio of TetK induced to uninduced MIC; for Effect of expression of (tet)K on activity: result in words
Excerpt: as §1

[3] = test system: E. coli S30 extract system, coupled in vitro transcription/translation, firefly luciferase readout; assay: In vitro transcription/translation (TnT) assay; format: biochemical; details: for IC50, in vitro transcription/translation system: E. coli S30 extract, luciferase readout
[4] = test system: Staphylococcus aureus SA101, ATCC 29213, MSSA; assay: MIC assay, SA101; format: cell-based; details: Table 8, read-out: MIC S. aureus ATCC 29213
[5] = test system: Enterococcus faecalis EF159, tetracycline-resistant, tet(M); assay: MIC assay, EF159; format: cell-based; details: Table 8, read-out: MIC E. faecalis tetM
[6] = test system: Escherichia coli EC107, ATCC 25922; assay: MIC assay, EC107; format: cell-based; details: ATCC25922, Table 8, read-out: MIC E. coli ATCC 25922
[7] = test system: Staphylococcus aureus SA161, HA-MRSA, tetracycline-resistant, tet(M); assay: MIC assay, SA161; format: cell-based; details: Table 8, read-out: MIC S. aureus MRSA, tetM
[8] = test system: Enterococcus faecalis EF103, ATCC 29212; assay: MIC assay, EF103; format: cell-based; details: Enterococcus faecalis, ATCC29212; Table 8; read-out: MIC E. faecalis ATCC 29212
[9] = test system: Escherichia coli EC155, tetracycline-resistant, tet(A); assay: MIC assay, EC155; format: cell-based; details: Table 8, read-out: MIC E. coli tetA
[10] = test system: Staphylococcus aureus SA158, tetracycline-resistant tet(K); assay: MIC assay, SA158; format: cell-based; details: Table 8, read-out: MIC S. aureus tetK
[11] = test system: Streptococcus pneumoniae SP106, ATCC 49619; assay: MIC assay, SP106; format: cell-based; details: ATCC49619, Table 8, read-out: MIC S. pneumoniae ATCC 49619
[12] = test system: Streptococcus pneumoniae SP160, tetracycline-resistant, tet(M); assay: MIC assay, SP160; format: cell-based; details: Table 8, read-out: MIC S. pneumoniae tetM
[13] = test system: E. faecalis clinical isolates; assay: MIC50, MIC90 and MIC range, panel of clinical isolates (Example 20); format: cell-based; details: 24 isolates, in µg/mL
Experimental: (§2) The assays were run as follows.
(§3) Both values, as well as the MIC range (the lowest and highest MIC value observed for a collection of organisms), were determined for the isolates listed in Table 3.

[14] = test system: S. aureus clinical isolates; assay: as above; format: cell-based; details: MRSA, 30 isolates; in µg/mL
Experimental: as §2, §3

[15] = test system: S. pneumoniae clinical isolates; assay: as above; format: cell-based; details: 19 isolates, in µg/mL
Experimental: as §2, §3

| Structure (SMILES) | MIC ([1]; read-out: MIC, TetM induced) [µg/mL] | MIC ([1]; read-out: MIC, Uninduced) [µg/mL] | Ratio (TetM induced / Uninduced) [1] | MIC ([2]; read-out: MIC, TetK Induced) [µg/mL] | MIC ([2]; read-out: MIC, Uninduced) [µg/mL] | MIC ratio, TetK induced to uninduced [2] | TnT IC50 [3] [µg/mL] | other results |
| --- | --- | --- | --- | --- | --- | --- | --- | --- |
| NCC[C@H](O)C(=O)N[C@@H]1C[C@H](N)[C@@H](O[C@H]2O[C@H](CN)[C@@H](O)[C@H](O)[C@H]2O)[C@H](O)[C@H]1O[C@H]1O[C@H](CO)[C@@H](O)[C@H](N)[C@H]1O [Amikacin, amikacin, reference compound] | 4 | 4 | 1 | 8 | 8 | 1 |  | Effect of expression of (tet)M on activity [1]: unaffected; Effect of expression of (tet)K on activity [2]: unaffected |
| CO/N=C(\C(=O)N[C@@H]1C(=O)N2C(C(=O)O)=C(CSc3nc(=O)c(=O)[nH]n3C)CS[C@H]12)c1csc(N)n1 [Ceftriaxone, ceftriaxone, reference compound] | 0.125 | 0.0625 | 2 | 0.25 | 0.125 | 2 |  | Effect of expression of (tet)M on activity [1]: unaffected; Effect of expression of (tet)K on activity [2]: unaffected |
| CCCc1nc(Cl)c2c(c1O)C(=O)C1=C(O)[C@]3(O)C(=O)C(C(N)=O)=C(O)[C@@H](N(C)C)[C@@H]3C[C@@H]1C2 [Compound 104] |  |  |  |  |  |  | 5.3 |  |
| CCCNc1nc(F)c2c(c1O)C(=O)C1=C(O)[C@]3(O)C(=O)C(C(N)=O)=C(O)[C@@H](N(C)C)[C@@H]3C[C@@H]1C2 [Compound 114] |  |  |  |  |  |  | 2.8 |  |
| CN(C)CCCNc1nc(Cl)c2c(c1O)C(=O)C1=C(O)[C@]3(O)C(=O)C(C(N)=O)=C(O)[C@@H](N(C)C)[C@@H]3C[C@@H]1C2 [Compound 119] |  |  |  |  |  |  | 0.58 | IC50, in vitro transcription/translation system [3]: sub-μg/ml |
| CN(C)[C@@H]1C(O)=C(C(N)=O)C(=O)[C@@]2(O)C(O)=C3C(=O)c4c(O)c(NC(=O)CNC(C)(C)C)nc(F)c4C[C@H]3C[C@@H]12 [Compound 120] |  |  |  |  |  |  | 0.36 | IC50, in vitro transcription/translation system [3]: sub-μg/ml |
| CN(C)[C@@H]1C(O)=C(C(N)=O)C(=O)[C@@]2(O)C(O)=C3C(=O)c4c(O)cnc(Cl)c4C[C@H]3C[C@@H]12 [Compound 123] |  |  |  |  |  |  |  | MIC [4]: 1 µg/mL (≈ 2.22 µM); MIC [5]: > 32 µg/mL; MIC [6]: 2 µg/mL (≈ 4.45 µM); MIC [7]: 32 µg/mL (≈ 71.1 µM); MIC [8]: 32 µg/mL (≈ 71.1 µM); MIC [9]: > 32 µg/mL; MIC [10]: 32 µg/mL (≈ 71.1 µM); MIC [11]: 1 µg/mL (≈ 2.22 µM); MIC [12]: 32 µg/mL (≈ 71.1 µM) |
| CN(C)[C@@H]1C(O)=C(C(N)=O)C(=O)[C@@]2(O)C(O)=C3C(=O)c4c(O)c(NCC(F)(F)F)nc(Cl)c4C[C@H]3C[C@@H]12 [Compound 124] | 16 | 4 | 4 | 16 | 8 | 2 | >4.5 | MIC Range [13]: 0.008-4; MIC Range [14]: 0.25-4; MIC Range [15]: <=0.016-8 |
